From US20040219202A1, “Pharmaceutical composition comprising lipids comprising a polar and a nonpolar moiety” (priority 2001, published 2004)
Entries after “also recorded” stand apart in the source; their conditions may differ.

Tests used:
COS-7 cells = test: Transfection of COS-7 cells with LMDs (liposome:mu:DNA), β-galactosidase reporter assay; format: cell-based; conditions: for Transfection relative to DOPE (fraction): CDAN:Helper Lipid, summary
Method: (§1) Purity of the lipids was checked by TLC or HPLC. All lipids were stored as stock solutions in anhydrous CH2Cl2, at concentrations of either 5 mg/ml or 10 mg/ml, at −80° C., under Ar. In order to prepare cationic liposomes, lipids were added to a round-bottomed flask, via syringe, under Ar, and further freshly distilled CH2Cl2 was added, if necessary, to give a concentration of around 2.5 mg/ml. Then, 4 mM HEPES pH 7.0 (1 ml) was added, and the biphasic system was swirled to mix. A liposomal suspension was created by removing the organic solvent under reduced pressure at 25° C., followed by sonication for 2-5 min. in a water bath sonicator. Doubly-distilled water was added, if necessary, to return the total volume to 1 ml. All liposomal solutions were prepared at a final concentration of 5 mg/ml. The pH of the liposomal suspension was checked by pH Boy (Camlab Ltd., Over, Cambridgeshire, UK) and adjusted to pH 7.0±0.1 with concentrated aqueous solutions of HCl and NaOH.
(§2) Liposomes were extruded (Extruder, Northern Upids, Inc., Vancouver, BC, Canada) by passing through two 100 nm polycarbonate filters (Isopore™ Membrane Filters, Millipore (UK) Ltd., Watford, Hertfordshire, UK) ten times. For each preparation, the size distribution of liposomes was measured by photon correlation spectroscopy (PCS) (Coulter® N4 Plus Submicron Particle Sizer, Beckman Coulter, High Wycombe, Buckinghamshire, UK). For phospholipid-containing liposomes, phospholipid concentrations were checked by the Stewart assay.^23 In each case, a final lipid concentration of 4.7±0.1 mg/ml was observed. For non-phospholipid containing liposomes, lipid loss was also inevitable on extrusion. For all fast-extruding liposomal suspensions, total lipid concentration was assumed to be 4.7 mg/ml. For slower extrusions, total lipid concentrations were assumed to be 4.3 mg/ml. Very slowly extruding liposomes were extruded three times only and assumed to be 4.7 mg/ml.
(§3) Plasmid DNA containing the β-galactosidase gene (pNGVL1-nt-beta-gal; 7.53 kbp) was stored as frozen aliquots at −80° C., at a concentration of 1.2 mg/ml; μ (mu) peptide (adenoviral core peptide [H2N-Met-Arg-Arg-Ala-His-His-Arg-Arg-Arg-Arg-Ala-Ser-His-Arg-Arg-Met-Arg-Gly-Gly-CO2H]) was synthesised as described previously,^7 and maintained at 4° C. in aliquots of 1 mg/ml. Mu-DNA complexes were made by adding plasmid DNA to mu in 4 mM HEPES at a ratio of 1:0.6 (w/w) with fast vortexing. LMDs were prepared by complexing mu-DNA particles with cationic liposomes (as prepared above) in a ratio of 1:12 (w/w), such that all LMDs for all formulations were substantially cationic. For each preparation, the size distribution of LMDs was measured by PCS.
COS-7 cells were maintained in DMEM/10% FCS/1% penicillin-streptomycin (Gibco™) at 37° C./5% CO2 in a humidified atmosphere. Twenty-four hours prior to transfection, 10 000 cells per well were seeded in 48-well microtitre plates (Coming Costar) in 500 μl medium. Plasmid DNA and Transfast™ controls were prepared as above. 5 μl (0.5 μg DNA) of LMD formulation was added to each well. All experiments were performed in quadruplicate. The plate was swirled for 30 s, and incubated for 1 h at 37° C. Medium was then removed, and 500 μl of fresh medium was added. The cells were incubated at 37° C. for a further 24 h.
Medium was aspirated from the wells and the cell layer was washed with phosphate buffered saline (PBS) (Gibco™). The cells of each well were lysed in 150 μl lysis reagent (prepared according to the supplier's protocol; β-Gal Reporter Gene Assay, Roche Diagnostics GmbH, D-68305 Mannheim, Germany) at room temperature for 30 min. After lysis, […], 50 μl and 20 μl, of each cell suspension were used for the determination of β-galactosidase activity and for the determination of total cellular protein (to normalise results), respectively.
In the β-gal assay, 100 μl of the substrate reagent was added to 50 μl of the cell suspension in a white 96-well microplate (Coming Costar). […]

Panc-1 cells = test: Transfection of Panc-1 cells with LMDs (liposome:mu:DNA), β-galactosidase reporter assay; format: cell-based
Method: as §1, §2, §3
Panc-1 cells were maintained in RPMI/10% FCS/1% penicillin-streptomycin (Gibco™, Invitrogen Corporation, Paisley, Scotland, UK) at 37° C./5% CO2 in a humidified atmosphere. Twenty-four hours prior to transfection, 30 000 cells per well were seeded in 48 well microtitre plates (Corning Costar, Merck Ltd., Lutterworth, Leicestershire, UK) in 500 μl medium. As a control, plasmid DNA (0.5 μg in 200 μl medium) was added to a well. As a positive control, 1.5 μl Transfast™ (Promega Corporation, Madison, Wis., USA; prepared according to the supplier's protocol) in 200 μl medium was complexed with plasmid DNA (0.5 μg) and added to a well. 5 μl (0.5 μg DNA) of LMD formulation was added to each well. All experiments were performed in quadruplicate. The plate was swirled for 30 s, and incubated for 1 h at 37° C. Medium was then removed, and 500 μl of fresh medium was added. The cells were incubated at 37° C. for a further 24 h.
Medium was aspirated from the wells and the cell layer was washed with phosphate buffered saline (PBS) (Gibco™). The cells of each well were lysed in 150 μl lysis reagent (prepared according to the supplier's protocol; β-Gal Reporter Gene Assay, Roche Diagnostics GmbH, D-68305 Mannheim, Germany) at room temperature for 30 min. […]

[1] = literature statement; cited from earlier work
[2] = LMDs of pure DOTAP or DOTAP-analogue liposomes, FIG. 20
[3] = LMDs of DOPE:Cationic Lipid, 1:1 liposomes, FIG. 21
[4] = LMDs of CDAN:Helper Lipid, 1:1 liposomes, FIG. 14
[5] = LMDs of CDAN:Helper Lipid, 1:1 liposomes, DOPE-analogues, FIG. 16
[6] = LMDs of CDAN:Helper Lipid, 2:3 liposomes, FIG. 17
[7] = LMDs of CDAN:Helper Lipid, 3:2 liposomes, FIG. 15
[8] = LMDs of CDAN:Helper Lipid, 1:1 liposomes, DOPC-analogues, FIG. 13

CCCCCCCCC#CCCCCCCCC(=O)OCC(C[N+](C)(C)C)OC(=O)CCCCCCCC#CCCCCCCCC.COS(=O)(=O)[O-] (stereo not drawn) [DO(9-yne)TAP]
Transfection (β-galactosidase activity) (COS-7 cells; [2]): transfects around one and-a-half times better than standard DOTAP; also recorded: transfect as well as DOTAP liposomes
Transfection (β-galactosidase activity) (Panc-1 cells; LMDs of Cholesterol:Cationic Lipid, 1:1 liposomes, FIG. 22): transfects as well as DOTAP
Transfection (β-galactosidase activity) (Panc-1 cells; [3]): a small increase in transfection

CCCCCCCCCCCCCC#CCCC(=O)OC[C@H](COP(=O)(O)OCCN)OC(=O)CCC#CCCCCCCCCCCCCC [DO(4-yne)PE]
Transfection relative to DOPE (fraction) (COS-7 cells; 1:1 liposomes): about 1/3
Fall in transfection on substituting DOPE (COS-7 cells; [4]): about 67%
Transfection (β-galactosidase activity) (Panc-1 cells; CDAN:Helper Lipid, 2:3, repeat, liposomes not fresh, LMDs fresh, FIG. 18): fallen to around that of Transfast
Transfection (β-galactosidase activity) (Panc-1 cells; [5]): transfect well and approximately to the same degree; also recorded: all transfect equally well
Transfection (β-galactosidase activity) (Panc-1 cells; [6]): transfect the best, up to five times better than DOPE
Transfection (β-galactosidase activity) (Panc-1 cells; [7]): transfect very poorly

CCCCCCCCCCCCC#CC#CCCCCCCCCCC(=O)NCCN(CCNC(=N)N)CCNC(=N)N [BGDA, bisguanidinium-diacetylene]
In vitro transfection in cationic liposome formulations [1]: highly efficient

CCCCCCCCCCCCCC#CCCC(=O)OC[C@H](COP(=O)([O-])OCC[N+](C)(C)C)OC(=O)CCC#CCCCCCCCCCCCCC [DO(4-yne)PC]
Transfection (β-galactosidase activity) (COS-7 cells; [8]): a fall in transfection ability
Transfection (β-galactosidase activity) (Panc-1 cells; LMDs of CDAN:Helper Lipid, 1:1 (mol/mol) liposomes, DOPC-analogues, FIG. 12): almost complete loss of any transfection ability

CCCCCCCC/C=C\CCCCCCCC(=O)OC[C@H](COP(=O)([O-])OCC[N+](C)(C)C)OC(=O)CCCCCCC/C=C\CCCCCCCC [DOPC]
Transfection (β-galactosidase activity) (COS-7 cells; [8]): transfect equally well
In vitro transfection in cationic liposome formulations [1]: eliminate or severely attenuate transfection

CCCC#CCCCCCCCCCCCCC(=O)OCC(C[N+](C)(C)C)OC(=O)CCCCCCCCCCCCC#CCCC.COS(=O)(=O)[O-] (stereo not drawn) [DO(14-yne)TAP]
Transfection (β-galactosidase activity) (COS-7 cells; [2]): almost total loss of transfection activity; also recorded: almost no transfection at all
Loss of transfection activity on replacing DOTAP (Panc-1 cells; Cholesterol:Cationic Lipid, 1:1 liposomes, FIG. 22): around 30%
Transfection (β-galactosidase activity) (Panc-1 cells; LMDs composed entirely of DOTAP or DOTAP-analogue liposomes, FIG. 19): a six-fold improvement on standard DOTAP; also recorded: transfect up to six times better than DOTAP; also recorded: transfects better than DOTAP
Transfection (β-galactosidase activity) (Panc-1 cells; [3]): a seven-fold increase

CCCC#CCCCCCCCCCCCCC(=O)OC[C@H](COP(=O)(O)OCCN)OC(=O)CCCCCCCCCCCCC#CCCC [DO(14-yne)PE]
Transfection relative to DOPE (fraction) (COS-7 cells; 1:1 liposomes): about 1/3
Fall in transfection on substituting DOPE (COS-7 cells; [4]): about 67%
Transfection (β-galactosidase activity) (Panc-1 cells; [5]): transfects around half as well as DOPE
Transfection (β-galactosidase activity) (Panc-1 cells; [6]): transfects the least well out of the monoacetylenic analogues
Transfection (β-galactosidase activity) (Panc-1 cells; [7]): transfect very poorly

CCCCCCCC/C=C\CCCCCCCC(=O)OCC(COP(=O)(O)OCCN)OC(=O)CCCCCCC/C=C\CCCCCCCC (stereo not drawn) [DOPE, dioleoylphosphatidylethanolamine]
Transfection (β-galactosidase activity) (COS-7 cells; LMDs of CDAN:Helper Lipid, 1:1 liposomes, DOPE-analogues, FIG. 14): transfection levels are high and approximately the same; also recorded: transfect COS-7 cells very well and to a similar degree
Transfection (β-galactosidase activity) (Panc-1 cells; [5]): transfect well and approximately to the same degree; also recorded: all transfect equally well
Transfection (β-galactosidase activity) (Panc-1 cells; [6]): below that of Transfast
Transfection (β-galactosidase activity) (Panc-1 cells; [7]): transfects around as twice as well as the nearest acetylenic analogue; also recorded: transfects better than all the monoacetylenic analogues
